The results in this text go back to PubChem BioAssay AID588628 (NMMLSC, 2011).

The assay concerns the target GTPase HRas (Homo sapiens) (UniProt P01112). Put plainly: activated H-Ras mutant GTP-binding inhibitors, SAR follow-up, biochemical, multiplex bead flow cytometry, round 2 (AID 588628). Particulars: bead-based flow cytometry, Bodipy-FL-GTP binding, EDTA; for % response (binding remaining): at 100 µM (top of the series). For orientation: In flow cytometry, cells or beads pass a laser one at a time.

Several values for one entry are separate records, joined by “and”; a condition that tells them apart may be missing. Equal entries are not always repeated. Activity calls are given as the source filed them.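 Rule for the calls: active = fitted EC50 of 10 µM or less with% response changing by at least 30 points across doses; inactive = the rest.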

Sequence of GTPase HRas (Homo sapiens) (P01112 whole entry, looked up): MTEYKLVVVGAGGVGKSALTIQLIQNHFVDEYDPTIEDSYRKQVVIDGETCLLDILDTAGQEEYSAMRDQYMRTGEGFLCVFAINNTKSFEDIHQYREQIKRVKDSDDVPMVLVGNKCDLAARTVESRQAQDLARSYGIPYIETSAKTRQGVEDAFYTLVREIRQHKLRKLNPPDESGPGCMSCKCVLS

As for `CC(C)(C)C1Cc2c(sc(NC(=S)NC(=O)c3ccccc3)c2C(=O)O)CO1` (centres undefined), the EC50 is 0.125 µM.
Take `CC1(C)Cc2c(sc(NC(=S)NC(=O)c3ccccc3Br)c2C(=O)O)CO1`: the EC50 was 1.21 µM.
Consider `Cc1ccc(C(=O)NC(=S)Nc2sc3c(c2C(=O)O)CC(C)(C)OC3)cc1`, for which the EC50 is 0.178 µM.
As to `CC1(C)CCc2sc(NC(=S)NC(=O)c3ccccc3)c(C(=O)O)c2C1`, the EC50 is 0.053 µM.
`COc1ccccc1C(=O)NC(=S)Nc1sc2c(c1C(=O)O)CC(C)(C)OC2`: the “% response (binding remaining)” value was “inactive”.
Consider `COc1ccc(C(=O)NC(=S)Nc2sc3c(c2C(=O)O)CC(C)(C)OC3)cc1`, for which the EC50 was 0.276 µM.
The same measure, in the same setting: under `CC1(C)Cc2c(sc(NC(=O)NC(=O)c3ccccc3)c2C(=O)O)CO1` stands 0.824 µM; under `Cc1cccc(C(=O)NC(=S)Nc2sc3c(c2C(=O)O)CC(C)(C)OC3)c1`, 0.854 µM; under `COc1cccc(C(=O)NC(=S)Nc2sc3c(c2C(=O)O)CC(C)(C)OC3)c1`, 0.205 µM.
`CC1Cc2c(sc(NC(=S)NC(=O)c3ccccc3)c2C(=O)O)CO1` (centres undefined): the EC50 is 0.217 µM.
On to `O=C(NC(=S)Nc1sc2c(c1C(=O)O)CCOC2)c1ccccc1`, for which the EC50 is 0.085 µM and 0.207 µM.
In the case of `O=C(NC(=S)Nc1sc2c(c1C(=O)O)CC1(CCCC1)OC2)c1ccccc1`, the EC50 was 0.033 µM.
Consider `CC1(C)Cc2c(sc(NC(=S)NC(=O)c3cccc(Br)c3)c2C(=O)O)CO1`, for which the “% response (binding remaining)” value is “inactive”.
As to `CC1(C)Cc2c(sc(NC(=S)NC(=O)c3ccco3)c2C(=O)O)CO1`, the EC50 was 0.065 µM.
Take `CC1(C)Cc2c(sc(NC(=S)NC(=O)c3ccc(F)cc3)c2C(=O)O)CO1`: the EC50 was 0.091 µM.
As to `CC1(C)Cc2c(sc(NC(=S)NC(=O)C3CCCCC3)c2C(=O)O)CO1`, the EC50 was 0.585 µM.
Consider `Cc1ccccc1C(=O)NC(=S)Nc1sc2c(c1C(=O)O)CC(C)(C)OC2`, for which the EC50 was 0.379 µM.
Still for that read-out and setting: for `CC1(C)Cc2c(sc(NC(=S)NC(=O)c3ccccc3F)c2C(=O)O)CO1` the value was 0.283 µM.
As to `CC1(C)Cc2c(sc(NC(=S)Nc3ccccc3)c2C(=O)O)CO1`, the “% response (binding remaining)” value is “inactive”.
`CCC1(C)Cc2c(sc(NC(=S)NC(=O)c3ccccc3)c2C(=O)O)CO1` (centres undefined): the EC50 is 0.035 µM.
On the same count and under the same terms, for `CC1(C)Cc2c(sc(NC(=S)NC(=O)c3ccc(Br)cc3)c2C(=O)O)CO1` the value was 0.564 µM.
In the case of `CC1(C)Cc2c(sc(NC(=S)NC(=O)c3ccccc3)c2C(=O)O)CO1`, the EC50 is 0.021 µM.
As for `CC1(C)Cc2c(sc(NC(=S)NC(=O)c3cccs3)c2C(=O)O)CO1`, the EC50 is 0.024 µM.
`CC1(C)Cc2c(sc(NC(=S)NC(=O)c3cccc(F)c3)c2C(=O)O)CO1`: the EC50 is 0.535 µM.

By EC50 is commonly meant the concentration at which the effect is half-maximal.
